Values joined by “and” are separate entries in the source; they are usually repeats but may differ in a detail not shown here. Equal entries are not always repeated.
Assays:
[1] = target: T1, ABL1 (Homo sapiens, UniProt P00519); experiment: Liability panel screening by DSF: ABL1; format: binding; settings: DSF, 20 µM, n=2; read-out: Mean ΔTM ABL1
T1 construct: made in house
Outline: (§1)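 ∆Tm in K was taken from Boltzmann-fitted unfolding inflection points, run in duplicate with a temperature ramp of 3 °C per minute up to 85 °C. Each recombinant protein (2 µM) was in HEPES 10 mM pH 7.5 and NaCl 500 mM, with SYPRO Orange dye at 1:1000.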

[2] = system: HEK293T cells; experiment: Cytotoxicity: growth-rate (change in confluence over 24 h); settings: 1 µM, normalized to 0.1% DMSO control, single replicates (n=1...)
[3] = target: T2, BRPF1 (Homo sapiens, UniProt P55201); experiment: Liability panel screening by DSF: BRPF1; format: binding; settings: DSF, 20 µM, n=2; read-out: Mean ΔTM BRPF1
T2 construct: This panel comprised ten highly ligandable kinases and bromodomains; made in house
T2 sequence (P55201 628-732 limits assumed): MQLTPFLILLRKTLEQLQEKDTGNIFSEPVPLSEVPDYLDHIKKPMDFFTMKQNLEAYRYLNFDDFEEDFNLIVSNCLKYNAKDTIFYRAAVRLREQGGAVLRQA
Outline: as §1

[4] = system: Gal4-VP16; format: cell-based; settings: 1 µM; vs. DMSO ctrl; single replicates n=1-3
[5] = target: T3, TRIM24 (Homo sapiens, UniProt O15164); experiment: Liability panel screening by DSF: TRIM24; format: binding; settings: DSF, 20 µM, n=2; read-out: Mean ΔTM TRIM24
T3 construct: This panel comprised ten highly ligandable kinases and bromodomains; made in house
T3 sequence (O15164 899-1004 limits assumed): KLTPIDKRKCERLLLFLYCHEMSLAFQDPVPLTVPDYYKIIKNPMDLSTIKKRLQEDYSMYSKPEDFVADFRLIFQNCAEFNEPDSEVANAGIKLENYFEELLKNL
Outline: as §1

[6] = target: T4, FGFR3 (Homo sapiens, UniProt P22607); experiment: Liability panel screening by DSF: FGFR3; format: binding; settings: DSF, 20 µM, n=2; read-out: Mean ΔTM FGFR3
T4 construct: made in house
T4 sequence (P22607 23-806, species assumed): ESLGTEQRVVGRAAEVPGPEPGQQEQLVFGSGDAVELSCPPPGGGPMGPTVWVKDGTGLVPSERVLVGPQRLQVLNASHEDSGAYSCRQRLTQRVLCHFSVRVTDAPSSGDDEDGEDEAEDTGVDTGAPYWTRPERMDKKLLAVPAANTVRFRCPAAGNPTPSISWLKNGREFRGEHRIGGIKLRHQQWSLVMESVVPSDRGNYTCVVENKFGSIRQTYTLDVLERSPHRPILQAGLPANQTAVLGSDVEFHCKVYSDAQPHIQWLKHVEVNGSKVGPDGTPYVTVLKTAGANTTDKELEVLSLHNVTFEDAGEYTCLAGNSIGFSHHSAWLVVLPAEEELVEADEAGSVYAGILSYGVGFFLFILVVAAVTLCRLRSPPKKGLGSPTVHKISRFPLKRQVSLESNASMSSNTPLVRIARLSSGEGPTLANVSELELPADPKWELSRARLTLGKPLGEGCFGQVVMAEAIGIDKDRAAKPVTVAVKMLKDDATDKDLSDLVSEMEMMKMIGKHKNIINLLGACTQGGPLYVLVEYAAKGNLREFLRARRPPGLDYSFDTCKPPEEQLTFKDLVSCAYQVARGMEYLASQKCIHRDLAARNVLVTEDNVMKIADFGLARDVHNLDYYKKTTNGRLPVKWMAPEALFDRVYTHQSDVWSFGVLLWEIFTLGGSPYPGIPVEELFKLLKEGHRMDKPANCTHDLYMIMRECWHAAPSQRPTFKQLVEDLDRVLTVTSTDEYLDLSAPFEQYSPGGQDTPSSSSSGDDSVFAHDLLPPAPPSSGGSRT
Outline: as §1

[7] = system: HEK293T cells; experiment: Cytotoxicity: metabolic activity (WST-8 / CCK-8 assay); settings: 1 µM; HEK293T, 24 h; WST-8; normalized to 0.1% DMSO; single replicates
[8] = target: T5, BRD4 (Homo sapiens, UniProt O60885); experiment: Liability panel screening by DSF: BRD4; format: binding; settings: DSF, 20 µM, n=2; read-out: Mean ΔTM BRD4
T5 construct: This panel comprised ten highly ligandable kinases and bromodomains; made in house
Outline: as §1

[9] = target: T6, GSK3B (Homo sapiens, UniProt P49841); experiment: Liability panel screening by DSF: GSK3B; format: binding; settings: DSF, 20 µM, n=2; read-out: Mean ΔTM GSK3B
T6 construct: made in house
T6 sequence (P49841 whole entry, species assumed): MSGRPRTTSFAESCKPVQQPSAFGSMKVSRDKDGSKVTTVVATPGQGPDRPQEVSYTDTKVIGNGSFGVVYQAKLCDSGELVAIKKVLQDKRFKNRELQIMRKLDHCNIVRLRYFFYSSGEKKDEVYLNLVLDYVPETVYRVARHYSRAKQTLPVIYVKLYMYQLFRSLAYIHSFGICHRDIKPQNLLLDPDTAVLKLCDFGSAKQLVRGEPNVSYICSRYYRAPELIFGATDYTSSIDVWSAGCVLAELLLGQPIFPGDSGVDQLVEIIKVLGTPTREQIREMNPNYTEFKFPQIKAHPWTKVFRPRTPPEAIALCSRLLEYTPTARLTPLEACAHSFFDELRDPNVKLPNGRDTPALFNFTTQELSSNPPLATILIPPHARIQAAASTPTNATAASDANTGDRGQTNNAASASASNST

[10] = target: T7, MAPK1 (Homo sapiens, UniProt P28482); experiment: Liability panel screening by DSF: MAPK1; format: binding; settings: DSF, 20 µM, n=2; read-out: Mean ΔTM MAPK1
T7 construct: made in house
T7 sequence (P28482 whole entry, species assumed): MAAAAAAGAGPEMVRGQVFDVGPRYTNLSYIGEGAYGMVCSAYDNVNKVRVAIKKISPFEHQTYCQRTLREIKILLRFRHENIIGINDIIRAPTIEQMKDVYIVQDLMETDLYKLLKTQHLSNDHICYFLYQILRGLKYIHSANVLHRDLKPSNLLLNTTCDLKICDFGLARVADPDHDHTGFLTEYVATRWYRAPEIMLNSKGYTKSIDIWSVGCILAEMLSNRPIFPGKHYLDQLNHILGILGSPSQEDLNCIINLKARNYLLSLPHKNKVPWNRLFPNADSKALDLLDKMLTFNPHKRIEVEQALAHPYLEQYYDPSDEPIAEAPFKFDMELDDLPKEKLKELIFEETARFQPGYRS
Outline: as §1

[11] = system: ATF6 activity in Hela ATF6 reporter cells; experiment: Endoplasmic reticulum stress assay (ATF6 Renilla luciferase reporter, tunicamycin); format: cell-based; settings: for activity at 1 µM: Homo sapiens, HeLa, single replicates n=1 to n=5, read-out: ER stress [rel. ATF6 activity]
Outline: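 HeLa ATF6 Renilla reporter cells were pretreated 4 h with compounds in 0.1% DMSO, then stimulated with tunicamycin (100 ng/mL) for 18 h. Renilla luminescence (DualGlo) was normalized to 0.1% DMSO control; five independent experiments.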

[12] = target: T8, AURKA (Homo sapiens, UniProt O14965); experiment: Liability panel screening by DSF: AURKA; format: binding; settings: DSF, 20 µM, n=2; read-out: Mean ΔTM AURKA
T8 construct: made in house
T8 sequence (O14965 1-403): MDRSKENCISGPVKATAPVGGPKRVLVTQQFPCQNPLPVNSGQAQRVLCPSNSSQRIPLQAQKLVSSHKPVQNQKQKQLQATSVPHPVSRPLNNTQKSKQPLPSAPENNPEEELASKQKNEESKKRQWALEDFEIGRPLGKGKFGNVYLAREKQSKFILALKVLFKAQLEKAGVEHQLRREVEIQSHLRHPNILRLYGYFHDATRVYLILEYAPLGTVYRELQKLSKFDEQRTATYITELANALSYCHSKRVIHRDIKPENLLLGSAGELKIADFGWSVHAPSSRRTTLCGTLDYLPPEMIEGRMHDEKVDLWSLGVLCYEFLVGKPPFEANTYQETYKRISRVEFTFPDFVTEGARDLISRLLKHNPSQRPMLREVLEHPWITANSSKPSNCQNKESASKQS
Outline: as §1

[13] = system: HEK293T cells; experiment: Cytotoxicity: necrosis induction (red fluorescent dye for permeable plasma membranes); format: cell-based; settings: 1 µM, 24 h, necrotic cell count normalized to 0.1% DMSO, single replicates;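 also: compounds applied in DMEM high glucose with 0.1% FCS and 0.1% DMSO, necrotic HEK293T cells counted by red staining of cells whose plasma membranes had become permeable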
[14] = system: NR3C2 (MR); settings: cited from earlier work
[15] = system: NF-κB activity in HEK293 NF-κB reporter cells; experiment: NF-kB activity assay (GFP reporter, ionomycin/PMA); format: cell-based; settings: for Mean NFκB response: n=3
Outline: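 HEK293 NF-κB GFP reporter cells given compound in 0.1% DMSO for 4 h, then stimulated with ionomycin 100 ng/mL plus PMA 10 ng/mL. Imaged every 90 min over 24 h; GFP-positive cell count normalized to confluence, three independent biological replicates.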

[16] = target: T9, CSNK1D (Homo sapiens, UniProt P48730); experiment: Liability panel screening by DSF: CSNK1D; format: binding; settings: DSF, 20 µM, n=2; read-out: Mean ΔTM CSNK1D
T9 construct: made in house
T9 sequence (P48730 whole entry, species assumed): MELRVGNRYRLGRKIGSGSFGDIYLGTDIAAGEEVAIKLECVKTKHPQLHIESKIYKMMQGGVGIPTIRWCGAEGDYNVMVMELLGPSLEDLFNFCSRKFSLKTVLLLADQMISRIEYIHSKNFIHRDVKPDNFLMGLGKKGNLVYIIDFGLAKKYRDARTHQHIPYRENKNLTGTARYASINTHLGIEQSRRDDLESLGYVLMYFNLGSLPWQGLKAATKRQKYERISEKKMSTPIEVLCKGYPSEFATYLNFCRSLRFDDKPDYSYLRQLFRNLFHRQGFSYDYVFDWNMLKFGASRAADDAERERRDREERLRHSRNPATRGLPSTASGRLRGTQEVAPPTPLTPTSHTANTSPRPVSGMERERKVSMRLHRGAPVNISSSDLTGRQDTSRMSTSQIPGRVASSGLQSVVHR
Outline: as §1

[17] = system: NR3C1 (GR); settings: cited from earlier work
[18] = system: HEK293T cells; experiment: Cytotoxicity: apoptosis induction (caspase-3/7 DEVD fluorogenic DNA dye); settings: 1 µM; HEK293T, 24 h; apoptotic cell count normalized to 0.1% DMSO; single replicates
[19] = target: T10, CDK2 (Homo sapiens, UniProt P24941); experiment: Liability panel screening by DSF: CDK2; format: binding; settings: DSF, 20 µM, n=2; read-out: Mean ΔTM CDK2
T10 construct: made in house
Outline: as §1

[20] = system: NR3C3 (PR); settings: (lit.); ref Supplementary Table 1; read-out: Potency [nM] EC50, NR3C3 (PR); cited from earlier work

T1 sequence (P00519 whole entry, species assumed): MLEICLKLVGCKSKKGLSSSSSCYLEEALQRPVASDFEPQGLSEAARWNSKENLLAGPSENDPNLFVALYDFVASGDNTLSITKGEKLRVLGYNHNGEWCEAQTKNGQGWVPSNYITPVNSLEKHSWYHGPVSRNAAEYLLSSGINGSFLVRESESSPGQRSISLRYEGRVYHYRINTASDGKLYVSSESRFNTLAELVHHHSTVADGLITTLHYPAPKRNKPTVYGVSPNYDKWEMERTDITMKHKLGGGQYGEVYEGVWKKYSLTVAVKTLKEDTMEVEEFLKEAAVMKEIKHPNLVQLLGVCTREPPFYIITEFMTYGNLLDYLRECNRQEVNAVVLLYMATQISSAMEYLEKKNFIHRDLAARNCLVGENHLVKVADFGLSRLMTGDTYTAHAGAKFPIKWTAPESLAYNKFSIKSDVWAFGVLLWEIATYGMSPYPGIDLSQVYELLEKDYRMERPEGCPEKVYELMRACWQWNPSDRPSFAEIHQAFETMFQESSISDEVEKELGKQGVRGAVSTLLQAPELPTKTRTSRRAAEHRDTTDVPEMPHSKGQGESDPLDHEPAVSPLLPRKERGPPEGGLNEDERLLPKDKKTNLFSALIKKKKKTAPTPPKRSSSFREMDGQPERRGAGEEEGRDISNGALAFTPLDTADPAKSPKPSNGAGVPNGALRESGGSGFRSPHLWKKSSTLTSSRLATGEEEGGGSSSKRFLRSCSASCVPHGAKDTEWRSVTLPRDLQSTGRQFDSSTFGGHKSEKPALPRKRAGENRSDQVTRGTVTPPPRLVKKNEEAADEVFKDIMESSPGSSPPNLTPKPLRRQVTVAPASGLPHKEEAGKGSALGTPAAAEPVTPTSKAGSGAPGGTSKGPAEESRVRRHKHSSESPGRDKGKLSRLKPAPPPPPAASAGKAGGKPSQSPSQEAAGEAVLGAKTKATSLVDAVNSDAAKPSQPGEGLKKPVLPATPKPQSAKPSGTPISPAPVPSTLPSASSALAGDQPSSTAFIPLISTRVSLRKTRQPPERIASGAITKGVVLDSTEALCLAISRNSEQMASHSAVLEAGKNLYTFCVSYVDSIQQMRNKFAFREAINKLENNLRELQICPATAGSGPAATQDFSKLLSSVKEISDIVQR

CC(=O)OCC(=O)[C@@]1(O)CC[C@H]2[C@@H]3CCC4=CC(=O)CC[C@]4(C)[C@@]3(F)[C@@H](O)C[C@@]21C [Fludrocortisone acetate]
ΔTm at 20 µM [1]: -0.12 °C
Growth rate [GR] [2]: 1.03 and 5.01 and 1.16 and 1.40 and 1.04 and 0.96 and 0.90 and 1.39 and 3.00 and 9.23
ΔTm at 20 µM [3]: -0.43 °C
VP16 control [fold reporter gene activity] [4]: 0.96 fold reporter gene activity and 0.81 fold reporter gene activity and 0.89 fold reporter gene activity
ΔTm at 20 µM [5]: -0.96 °C
ΔTm at 20 µM [6]: -0.06 °C
Metabolic activity [MA] [7]: 1.08 (2×) and 0.93 and 1.06 and 1.01 and 0.96 and 1.04 and 1.00
ΔTm at 20 µM [8]: -0.79 °C
ΔTm at 20 µM [9]: -0.61 °C
ΔTm at 20 µM [10]: 0.55 °C
ATF6 activity (tunicamycin-induced endoplasmic reticulum stress) ([11]; Hela ATF6 reporter cells, tunicamycin 100 ng/mL, 18 h, compounds at recommended concentrations, n = 5): Consistently weaker ATF6 activity
activity at 1 µM [11]: 82%
ΔTm at 20 µM [12]: 0.09 °C
Necrosis induction [NI] [13]: 1.13 and 1.14 and 1.54 and 1.19
rel. activity from literature, NR3C2 (MR): fold activation [14]: ~ 41 fold
Mean NFκB response ([15]; 1 µM, 1,5 h): 3820.94 GFP+-cells/confluence ∙ 1000
Mean NFκB response ([15]; 1 µM, 4,5 h): 4296.72 GFP+-cells/confluence ∙ 1000
Mean NFκB response ([15]; 1 µM, 7,5 h): 6095.26 GFP+-cells/confluence ∙ 1000
Mean NFκB response ([15]; 1 µM, 10,5 h): 8052.10 GFP+-cells/confluence ∙ 1000
Mean NFκB response ([15]; 1 µM, 13,5 h): 9784.85 GFP+-cells/confluence ∙ 1000
Mean NFκB response ([15]; 1 µM, 16,6 h): 11376.50 GFP+-cells/confluence ∙ 1000
Mean NFκB response ([15]; 1 µM, 19,5 h): 12926.78 GFP+-cells/confluence ∙ 1000
Mean NFκB response ([15]; 1 µM, 22,5 h): 13912.05 GFP+-cells/confluence ∙ 1000
Mean NFκB response ([15]; 1 µM, 3 h): 3762.70 GFP+-cells/confluence ∙ 1000
Mean NFκB response ([15]; 1 µM, 6 h): 5124.39 GFP+-cells/confluence ∙ 1000
Mean NFκB response ([15]; 1 µM, 9 h): 7003.20 GFP+-cells/confluence ∙ 1000
Mean NFκB response ([15]; 1 µM, 12 h): 8806.82 GFP+-cells/confluence ∙ 1000
Mean NFκB response ([15]; 1 µM, 15 h): 10595.86 GFP+-cells/confluence ∙ 1000
Mean NFκB response ([15]; 1 µM, 18 h): 12286.70 GFP+-cells/confluence ∙ 1000
Mean NFκB response ([15]; 1 µM, 21 h): 13535.05 GFP+-cells/confluence ∙ 1000
Mean NFκB response ([15]; 1 µM, 24 h): 14315.67 GFP+-cells/confluence ∙ 1000
NF-κB activity (inflammatory response to ionomycin/PMA) ([15]; HEK293 NF-κB reporter cells, compounds at recommended concentrations, imaged over 24 h, n = 3): consistently delayed and strongly diminished NF-κB activity
ΔTm at 20 µM [16]: -0.08 °C
EC50 ([17]; (lit.), ref Supplementary Table 1, read-out: Potency [nM] EC50, NR3C1 (GR)): 4 nM
rel. activity from literature, NR3C1 (GR): fold activation [17]: ~ 1000 fold
Apoptosis induction [AI] [18]: 1.14 and 1.39 and 1.56 and 1.37 and 1.13 and 1.61
ΔTm at 20 µM [19]: -0.73 °C

N#Cc1ccc(N2N=C3c4ccc(C(=O)O)cc4CC[C@@H]3[C@@H]2C2CCCC2)cc1Cl [PF-03882845]
ΔTm at 20 µM [1]: -2.47 °C
ΔTm at 20 µM [3]: -8.37 °C
EC50 [20]: 416 nM
ΔTm at 20 µM [5]: 1.43 °C
ΔTm at 20 µM [8]: 0 °C
ΔTm at 20 µM [9]: 0 °C
ΔTm at 20 µM [10]: -9.49 °C
activity at 1 µM [11]: 94%
ΔTm at 20 µM [12]: 0.42 °C
Necrosis induction [NI] [13]: 1.10 and 0.88 and 0.95 and 1.46
EC50 ([14]; (lit.), ref Supplementary Table 1, read-out: Potency [nM] EC50, NR3C2 (MR)): 9 nM
Mean NFκB response ([15]; 1 µM, 1,5 h): 2659.67 GFP+-cells/confluence ∙ 1000
Mean NFκB response ([15]; 1 µM, 4,5 h): 3143.33 GFP+-cells/confluence ∙ 1000
Mean NFκB response ([15]; 1 µM, 7,5 h): 6360.00 GFP+-cells/confluence ∙ 1000
Mean NFκB response ([15]; 1 µM, 10,5 h): 17053.33 GFP+-cells/confluence ∙ 1000
Mean NFκB response ([15]; 1 µM, 13,5 h): 25306.67 GFP+-cells/confluence ∙ 1000
Mean NFκB response ([15]; 1 µM, 16,6 h): 31613.33 GFP+-cells/confluence ∙ 1000
Mean NFκB response ([15]; 1 µM, 19,5 h): 36320.00 GFP+-cells/confluence ∙ 1000
Mean NFκB response ([15]; 1 µM, 22,5 h): 39133.33 GFP+-cells/confluence ∙ 1000
Mean NFκB response ([15]; 1 µM, 3 h): 2686.67 GFP+-cells/confluence ∙ 1000
Mean NFκB response ([15]; 1 µM, 6 h): 3810.00 GFP+-cells/confluence ∙ 1000
Mean NFκB response ([15]; 1 µM, 9 h): 11590.00 GFP+-cells/confluence ∙ 1000
Mean NFκB response ([15]; 1 µM, 12 h): 21213.33 GFP+-cells/confluence ∙ 1000
Mean NFκB response ([15]; 1 µM, 15 h): 28830.00 GFP+-cells/confluence ∙ 1000
Mean NFκB response ([15]; 1 µM, 18 h): 34136.67 GFP+-cells/confluence ∙ 1000
Mean NFκB response ([15]; 1 µM, 21 h): 37763.33 GFP+-cells/confluence ∙ 1000
Mean NFκB response ([15]; 1 µM, 24 h): 40546.67 GFP+-cells/confluence ∙ 1000
ΔTm at 20 µM [16]: -4.9 °C
Apoptosis induction [AI] [18]: 0.00 (4×) and 0.46 and 0.70
ΔTm at 20 µM [19]: -2.04 °C

From publication PMC11790914, “Chemogenomics for steroid hormone receptors (NR3)” (Communications Chemistry, 2025)
